Assay results: patent publication US9346813B2, “Substituted pyrrolo[2,3-d]pyrimindines as CDK9 kinase inhibitors” (AbbVie Inc., priority 2014, dated 2016)

Legend:
CDK9/Cyclin T1 = target: T1, CDK9/Cyclin T1 (Homo sapiens, UniProt P50750); assay: CDK9 enzyme protocol (LANCE ULight TR-FRET kinase assay); type: biochemical; conditions: 4 nM CDK9/Cyclin T1, 1000 μM ATP, 100 nM U-light MBP peptide, 30 minutes
T1 construct: purchased Carna Biosciences 04-110
Method in brief: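 Human CDK9/Cyclin T1 (4 nM) phosphorylated 100 nM ULight-MBP peptide at 1000 μM ATP for 30 min in HEPES/MgCl2/Triton buffer. The reaction was stopped with 20 mM EDTA plus 0.5 nM Eu anti-phospho-MBP antibody and equilibrated 1 h. Read-out was TR-FRET (ex 320, em 615/665 nm).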

A431 cells = assay: Cell viability assay in A431 cells (Cell TiterGlo); type: cell-based; conditions: Homo sapiens, A-431, 24 hours at 37° C.
Protocol: Cell viability assays were performed using A431 or H929 cells. A431 cells were seeded in 96-well plates at 10,000 cells/well, and after overnight incubation, treated with compounds at 2-times the final concentration to result in a dose response of 3-fold dilutions from 10 μM to 0.0005 μM (50 μL/well, 0.1% final DMSO concentration). H929 cells were seeded in 96-well plates at 10,000 cells/well and treated immediately with compounds as described above. After 24 hours at 37° C., cell viability was measured using Cell TiterGlo reagent (Promega) with a luminescence reader. Alternately, cell viability assays were performed in 384-well format. A431 cells were seeded in 384-well plates at 2500 cells/well and, after overnight incubation, treated with compounds in a dose response of 3-fold dilutions from 10 μM to 0.0005 μM (25 nL/well, 0.1% final DMSO concentration). For the H929 viability assay, 25 nL/well of the compounds was dispensed into 384-well plates in a dose response as described above and cells were immediately seeded in 384-well plates at 2500 cells/well. After 24 hours at 37° C., cell viability was measured using Cell TiterGlo reagent (Promega) with a luminescence reader.

H929 cells = assay: Cell viability assay in H929 cells (Cell TiterGlo); type: cell-based; conditions: Homo sapiens, NCI-H929, 24 hours at 37° C.
Method in brief: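 Cells seeded at 10,000 (96-well) or 2500 (384-well) cells/well; A431 dosed after overnight attachment, H929 dosed at seeding. 3-fold dilutions from 10 μM to 0.0005 μM, 0.1% final DMSO. Viability read by Cell TiterGlo luminescence after 24 hours at 37° C.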

T1 sequence (P50750 whole entry): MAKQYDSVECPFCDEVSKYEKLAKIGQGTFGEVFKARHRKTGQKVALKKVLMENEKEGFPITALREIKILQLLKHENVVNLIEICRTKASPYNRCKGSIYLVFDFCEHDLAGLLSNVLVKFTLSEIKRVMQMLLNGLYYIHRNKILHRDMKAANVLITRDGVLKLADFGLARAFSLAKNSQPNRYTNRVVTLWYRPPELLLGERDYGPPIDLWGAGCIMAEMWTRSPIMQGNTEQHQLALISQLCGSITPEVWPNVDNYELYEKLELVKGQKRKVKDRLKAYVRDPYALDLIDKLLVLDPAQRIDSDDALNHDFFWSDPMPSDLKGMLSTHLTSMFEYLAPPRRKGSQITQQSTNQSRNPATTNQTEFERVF
T1 sequence (O60563 whole entry partner): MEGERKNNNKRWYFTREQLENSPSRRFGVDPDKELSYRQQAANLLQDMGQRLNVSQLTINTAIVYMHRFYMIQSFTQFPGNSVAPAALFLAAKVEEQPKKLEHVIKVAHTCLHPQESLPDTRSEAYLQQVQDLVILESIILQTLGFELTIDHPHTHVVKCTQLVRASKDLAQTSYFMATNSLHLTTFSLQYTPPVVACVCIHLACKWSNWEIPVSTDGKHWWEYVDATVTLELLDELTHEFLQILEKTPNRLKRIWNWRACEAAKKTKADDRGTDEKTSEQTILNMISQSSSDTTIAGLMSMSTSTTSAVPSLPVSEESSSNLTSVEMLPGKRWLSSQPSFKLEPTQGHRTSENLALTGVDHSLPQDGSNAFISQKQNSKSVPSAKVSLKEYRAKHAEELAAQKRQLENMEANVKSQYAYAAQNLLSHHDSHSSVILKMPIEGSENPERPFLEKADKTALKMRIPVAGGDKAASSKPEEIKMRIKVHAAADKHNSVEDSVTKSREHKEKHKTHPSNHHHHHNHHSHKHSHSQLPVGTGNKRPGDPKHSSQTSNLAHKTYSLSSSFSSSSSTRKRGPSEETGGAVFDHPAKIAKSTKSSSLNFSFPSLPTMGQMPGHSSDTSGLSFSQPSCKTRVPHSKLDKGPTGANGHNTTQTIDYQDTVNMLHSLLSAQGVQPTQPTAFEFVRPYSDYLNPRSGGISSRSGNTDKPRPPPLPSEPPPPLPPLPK

Structure (SMILES)	IC50 (CDK9/Cyclin T1)	EC50 (A431 cells)	EC50 (H929 cells)
COc1ccc(F)cc1-c1ncnc2[nH]c(C3=CCNCC3)cc12 [Example 3, 4-(5-fluoro-2-methoxyphenyl)-6-(1,2,3,6-tetrahydropyridin-4-yl)-7H-pyrrolo[2,3-d]pyrimidine]		0.032 µM	0.2 µM
COc1ccc(F)cc1-c1ncnc2[nH]c(C3=CCN(Cc4ccc(C(=O)O)cc4)CC3)cc12 [Example 72, 4-({4-[4-(5-fluoro-2-methoxyphenyl)-7H-pyrrolo[2,3-d]pyrimidin-6-yl]-3,6-dihydropyridin-1(2H)-yl}methyl)benzoic acid]	0.11 µM	5.2 µM	2.4 µM
COc1ccc(F)cc1-c1ncnc2[nH]c(C3=CCN(CC(=O)N(C)C)CC3)cc12 [Example 80, 2-{4-[4-(5-fluoro-2-methoxyphenyl)-7H-pyrrolo[2,3-d]pyrimidin-6-yl]-3,6-dihydropyridin-1(2H)-yl}-N,N-dimethylacetamide]		0.13 µM	0.12 µM
COc1ccc(F)cc1-c1ncnc2[nH]c(C3=CCN(C(=O)CO)CC3)cc12 [Example 7, 1-{4-[4-(5-fluoro-2-methoxyphenyl)-7H-pyrrolo[2,3-d]pyrimidin-6-yl]-3,6-dihydropyridin-1(2H)-yl}-2-hydroxyethanone]	0.037 µM	0.15 µM	0.18 µM
COc1ccc(F)cc1-c1ncnc2[nH]c(C3CCNCC3)cc12 [Example 1, 4-(5-fluoro-2-methoxyphenyl)-6-(piperidin-4-yl)-7H-pyrrolo[2,3-d]pyrimidine]	0.052 µM	0.1 µM	

Now from value to molecule, other results behind:

IC50 (CDK9/Cyclin T1)	EC50 (A431 cells)	Structure (SMILES)	EC50 (H929 cells)
0.12 µM	0.26 µM	CNC(=O)N1CC=C(c2cc3c(-c4cc(F)ccc4OC)ncnc3[nH]2)CC1 [Example 17, 4-[4-(5-fluoro-2-methoxyphenyl)-7H-pyrrolo[2,3-d]pyrimidin-6-yl]-N-methyl-3,6-dihydropyridine-1(2H)-carboxamide]	0.2 µM
0.075 µM	0.11 µM	COc1ccc(F)cc1-c1ncnc2[nH]c(C3=CCN(Cc4ccc(NS(C)(=O)=O)cc4)CC3)cc12 [Example 81, N-[4-({4-[4-(5-fluoro-2-methoxyphenyl)-7H-pyrrolo[2,3-d]pyrimidin-6-yl]-3,6-dihydropyridin-1(2H)-yl}methyl)phenyl]methanesulfonamide]	0.1 µM
